Read-outs that look alike come from different tables or passages of the source.
How the values were obtained:
[1] = Cytotoxic activity, Alamar Blue; format: cell-based; settings: mouse, murine macrophages J774A.1, 24 h
Protocol: Murine macrophages (J774A.1) ATCC TIB-67 were cultured in RPMI, supplemented with 10% FBS at 37 °C and 5 % CO2 atmosphere.
In a 96-well plate, macrophages (2 × 10^5 cells/mL) were added. After completing the adherence (2–4 h), macrophages were incubated with serial dilutions of compounds 1–5. […] The selectivity index (SI) was calculated as the ratio of CC50 and IC50 [38].

[2] = system: Leishmania amazonensis promastigotes; assay: Alamar Blue assay against promastigotes; format: cell-based; settings: L. amazonensis promastigotes
Protocol: Leishmania amazonensis (MHOM/BR/77/LTB0016) promastigotes were cultured in RPMI 1640 medium (Gibco, Waltham, MA, USA), supplemented with 10 % FBS at 26 °C. Additionally, for maintenance, the promastigotes were cultured in SND medium (Sigma-Aldrich, Darmstadt, Germany) supplemented with 10 % FBS at 26 °C. Both media were supplemented with gentamicin at 10 µg/mL.
Compounds 1–5 were tested against promastigotes of Leishmania amazonensis using the colorimetric assay based on the Alamar Blue® reagent. In a 96-well plate, serial dilutions of the compounds and the promastigote form of the parasite (10^6 cells/mL) were added at a final volume of 200 µL.

[3] = system: L. amazonensis intracellular amastigotes; assay: Alamar Blue assay against intracellular amastigotes in murine macrophages; format: cell-based; settings: Leishmania amazonensis, Macrophage; intracellular amastigotes of L. amazonensis
Protocol: Briefly, in a 96-well plate, murine macrophages (2 × 10^5 cells/mL) were incubated in RPMI medium at 37 °C and 5 % CO2 atmosphere for 2–4 h. Promastigote forms of L. amazonensis (2 × 10^6 cells/mL) were added to reach a 1:10 macrophage:parasite ration, and after 24 h of incubation, the cells were washed to discard the not-introduced parasites. Serial dilutions of the compound were added in 100 µL of RPMI medium. Following 24 h of incubation, the plate was washed, and the cells were broken with SDS 0.05% for 30 s. Fresh medium was added, and 48 h later, 10% Alamar Blue® reagent was added.

[4] = system: Leishmania amazonensis promastigotes; assay: ATP level analysis (CellTiter-Glo); format: cell-based; settings: 24 h incubation with IC90, compared to untreated parasites
Protocol: (§1) After incubation for 24 h at 26 °C, samples were centrifuged (3000 rpm, 10 min, 4 °C) and resuspended in 50 µL of PBS buffer. Different events involved in parasite cell death were studied following the manufacturer’s instructions for each kit.
ATP levels were measured using the CellTiter-Glo® Luminescent Cell Viability Assay kit (Promega, Fitchburg, WI, USA) and the EnSpire Multimode Plate Reader® (PerkinElmer, Waltham, MA, USA). After 24 h of incubation with laurequinone (1), the pellet was resuspended in the buffer and the kit. After 2 min of agitation and 10 min of incubation at room temperature in the dark, the luminescence was measured with the EnSpire Multimode Plate Reader®. The results were plotted against the negative control of untreated cells. Sodium azide (20 mM) was added as a positive control.

[5] = system: L. amazonensis promastigotes; assay: Reactive oxygen species analysis (CellROX Deep Red); format: cell-based, Leishmania amazonensis; settings: 24 h incubation with IC90
Protocol: as §1
Oxidative stress is the result of an imbalance between the production of reactive oxygen species (ROS) and the cells’ ability to remove them. The CellROX® Deep Red Reagent (ThermoFisher Scientific, Waltham, MA, USA) was used to measure the oxidative stress. […] Treated parasites were incubated and resuspended in the buffer, the kit was added, and the plate was incubated for 30 min at 26 °C in the dark. Oxidative stress is represented as red fluorescence in the images obtained with the Cy5 light cube (excitation 644 nm/emission 665 nm) of the EVOS® FL Cell Imaging System (ThermoFisher Scientific, Waltham, MA, USA). Untreated parasites were used as a negative control, and hydrogen peroxide (600 mM) was used as a positive control.

[6] = system: L. amazonensis promastigotes; assay: Chromatin condensation analysis (Hoechst 33342/PI); format: cell-based, Leishmania amazonensis; settings: promastigotes treated with IC90, Hoechst/PI
Protocol: as §1
The Invitrogen Chromatin Condensation/Dead Cell Apoptosis Kit, Hoechst 33342/propidium iodide (PI), was used to determine whether chromatin condensation was produced in the treated parasites. After adding the kit, the parasites were incubated for 30 min at 26 °C in the dark. The results were observed under the EVOS fluorescence microscope using DAPI (excitation 350 nm/emission 461 nm for Hoechst) and RFP (excitation 535 nm/emission 617 nm for PI) light cubes. The obtained images were divided into three types of results: low fluorescence of both stains when the cells were alive, intense fluorescence when the cell had condensed chromatin (programmed cell death), and intense red fluorescence when the cell had died.

[7] = system: L. amazonensis promastigotes; assay: Phosphatidylserine externalization (annexin V/PI, TALI cytometer); format: cell-based, Leishmania amazonensis; settings: 24 h incubation with IC90
Protocol: as §1
A double-staining assay with annexin V/propidium iodide (PI) was performed using the Tali® Apoptosis Kit–Annexin V Alexa Fluor® 488 (Invitrogen^TM, Waltham, MA, USA). Briefly, after incubating the treated parasites for 24 h, they were washed with the buffer and incubated with annexin V for 20 min. Promastigotes were centrifuged and resuspended in buffer containing PI and incubated for 3 min. Finally, the stained cells were loaded into a slide and inserted in a TALI^TM image-based cytometer (Life Technologies, Carlsbad, CA, USA). Data were expressed in percentages, divided into three groups: apoptotic cells (green fluorescence), dead cells (red or red and green fluorescence), and live cells (no fluorescence), provided by TALI® data acquisition and analysis software (Life Technologies).

[8] = system: Leishmania amazonensis promastigotes; assay: Mitochondrial membrane potential analysis (JC-1); format: cell-based; settings: 24 h incubation with IC90, JC-1
Protocol: as §1
The JC-1 Mitochondrial Membrane Potential Assay Kit® (Cayman Chemical, Ann Arbor, MI, USA) was used to determine whether an alteration in the mitochondrial potential occurred during cell death. The parasites treated with laurequinone were incubated with the staining solution for 20 min at 26 °C in the dark. Green and red fluorescence were measured using the EnSpire Multimode Plate Reader® (PerkinElmer). The results were expressed as the percentage relative to the untreated cells of the red (J-aggregates 540/570 nm)/green ratio (J-monomers 485/535 nm). The membrane-permeant JC-1 dye is widely used in apoptosis studies to monitor mitochondrial health. […] Consequently, mitochondrial depolarization is indicated by a decrease in the red/green fluorescence intensity ratio. Sodium azide (20 mM) was added as a positive control.

[9] = system: L. amazonensis promastigotes; assay: Plasma membrane permeability (SYTOX Green); format: cell-based, Leishmania amazonensis; settings: 24 h incubation with IC90
Protocol: as §1
The SYTOX Green assay (Life Technologies, Madrid, Spain) was used to determine the damage in the plasma membrane permeability of treated cells. Parasites were incubated for 24 h with the compound and the stain was added and incubated for 15 min. […] Triton X-100, a well-known non-ionic surfactant, was added at 0.5% for 3 h before staining, as a positive control.

trypanothione reductase = system: trypanothione reductase; parameters: method as in PMID 21717278; settings: cited from earlier work
[10] = system: L. donovani axenic amastigotes; parameters: method as in PMID 21717278; settings: L. donovani axenic amastigotes ref 32; cited from earlier work
[11] = system: L. donovani promastigotes; parameters: method as in PMID 21717278; settings: L. donovani promastigotes ref 32; cited from earlier work
[12] = Leishmania amazonensis, 72 h, 72 h total, read-out: IC50 Promastigotes
[13] = 72 h total, read-out: IC50 Promastigotes

IC50 [3] [µM]	IC50 [2, 13] [µM]	Structure (SMILES)	CC50 at 24 h [1] [µM]	IC50 [2, 12] [µM]	CC50 at 24 h ([1]; J774A.1 macrophages) [µM]	further results
–	–	Cc1cc2c(cc1Br)[C@]1(C)CC[C@H](C)[C@]1(C)O2 [Aplysin (5), aplysin]	1100 ± 40.6	54.1	–	–
24.3 ± 5.09	12.48 ± 0.05	Cc1ccc([C@]2(C)CC[C@@H]3C[C@@]32C)c(O)c1 [Debromolaurinterol (3), debromolaurinterol]	–	< 15	70.1 ± 12.9	–
16.7 ± 6.08	1.87 ± 0.17	CC1=CC(=O)C([C@]2(C)CC[C@@H]3C[C@@]32C)=CC1=O [Laurequinone (1), laurequinone]	–	< 2	42.1 ± 1.3	ATP levels [4]: no change in ATP levels; ROS accumulation (CellROX Deep Red fluorescence) [5]: noticeable increase in visual fluorescence of CellROX Deep Red; chromatin condensation [6]: no chromatin condensation was observed; IC50 ([2]; Leishmania amazonensis, expressed in µg/mL, read-out: IC50): 0.43 µg/mL; cell population with exposed phosphatidylserine residues [7]: approximately 30%; mitochondrial membrane potential (ΔΨm) [8]: significant decrease in mitochondrial membrane potential; plasma membrane permeability (SYTOX Green fluorescence) [9]: no significant green fluorescence was observed
3.12 ± 0.29	–	CCCCCCCCCCCCCCCCOP(=O)([O-])OCC[N+](C)(C)C [Miltefosine, miltefosine, reference compound]	–	6.48 ± 0.25	72.2 ± 3.07	–
–	–	CC1=CC(=O)c2c(O)cccc2C1=O [Plumbagin]	–	–	–	mechanism of action on trypanothione reductase (trypanothione reductase): non-competitive inhibition of trypanothione reductase; IC50 [10]: 0.21 µM; IC50 [11]: 0.34 µM

Structure (SMILES)	IC50 [3] [µM]	IC50 [2, 13] [µM]	CC50 at 24 h [1] [µM]	IC50 [2, 12] [µM]	CC50 at 24 h ([1]; J774A.1 macrophages) [µM]	further results
C=C1[C@@H](C)CC[C@@]1(C)c1cc(Br)c(C)cc1O [Isolaurinterol (4), isolaurinterol]	–	10.1 ± 1.69	24.6 ± 2.37	< 15	–	–
Cc1cc(O)c([C@]2(C)CC[C@@H]3C[C@@]32C)cc1Br [Laurinterol (2), laurinterol]	34.7 ± 4.06	–	80.1 ± 7.79	34.5 ± 6.44	–	–
